± gives the expanded uncertainty stated by the source.
Experiments:
[1] = 298.2 K; 101.33 kPa; Liquid; Vibrating tube method
[2] = refractive index (Na D-line) (dimensionless); conditions: 298.2 K; 101.33 kPa; Liquid; Standard Abbe refractometry

| Compound | mass density [1] [kg/m3] | refractive index [2] |
| --- | --- | --- |
| CCOC(=O)CCCCCCCCC(=O)OCC [diethyl decanedioate] | 959.18 ± 0.37 | 1.43485 ± 0.00042 |
| CC(C)CCO [3-methylbutan-1-ol] | 807.16 ± 0.35 | 1.40528 ± 0.00042 |
| CCOC(=O)CCC(=O)OCC [diethyl butanedioate] | 1035.34 ± 0.4 | 1.41967 ± 0.00042 |

The next lines start with the values.

| mass density [1] [kg/m3] | refractive index [2] | Compound |
| --- | --- | --- |
| 1214.1 ± 0.51 | 1.36939 ± 0.00042 | O=CO [formic acid] |
| 862.23 ± 0.36 | 1.41572 ± 0.00042 | CCCCCCCC(=O)OCC [ethyl octanoate] |
| 872.36 ± 0.36 | 1.39841 ± 0.00042 | CCCCC(=O)OCC [ethyl pentanoate] |
